Measurements: patent publication US20130102595A1 (Curis, Inc., priority 2011, published 2013)

Assays:
[1] = molecular target: T1, PI3Kδ (p110δ/p85α) (Homo sapiens, UniProt O00329); assay: PI3Kδ ADP-Glo assay; format: biochemical; conditions: 20 μM PIP2, 10 μM ATP, 90 minutes
T1 construct: GST (N); made in house; host or cells: Baculovirus-infected Sf9 cells
Description: (c) an In Vitro Assay which Determines the Ability of a Test Compound to Inhibit PI3Kδ.
Activity of PI3Kδ was measured using ADP-Glo assay from Promega. PI3Kδ, a complex of N-terminal GST-tagged recombinant full-length human p110δ (GenBank, Accession No. NM_005026) and untagged recombinant full length human p85α (GenBank Accession No. XM—043865) were co-expressed in a Baculovirus infected Sf9 cell expression system. The ADP-Glo assay was performed to measure the amount of ADP generated from ATP hydrolysis coupled with PIP2 phosphorylation by the purified recombinant PI3Kδ (p110δ/p85α). PI3Kδ was incubated with 20 μM PIP2 substrate in the reaction buffer (10 mM Tris-HCl, pH 7.5, 50 mM NaCl, 5 mM MgCl2, 10 μM ATP and 0.5% DMSO) for 90 minutes at room temperature. The ADP generated was then detected by ADP-Glo assay from Promega, a luminescent ADP detection assay. The ADP-Glo assay is performed in two steps; first, after the kinase reaction, ADP-Glo Reagent is added to terminate the kinase reaction and deplete the remaining ATP. Second, the Kinase Detection Reagent is added to simultaneously convert ADP to ATP and allow the newly synthesized ATP to be measured using a luciferase/luciferin reaction.

[2] = test system: A549; assay: Cell proliferation assay (CellTiter-Glo); format: cell-based; conditions: Homo sapiens, NSCLC, 72 hours, 0.5% fetal bovine serum, read-out: antiproliferative activity IC50, A549
Outline: (§1)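 Cancer cells seeded at 5,000–10,000/well and exposed to a concentration range of compound for 72 h in 0.5% FBS. Growth inhibition read as ATP content by luciferase luminescence after 30 min lysis.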

[3] = test system: H292; assay: Cell proliferation assay (CellTiter-Glo); format: cell-based; conditions: Homo sapiens, NCI-H292; NSCLC; 72 hours, 0.5% fetal bovine serum; read-out: antiproliferative activity IC50, H292
Outline: as §1

[4] = test system: LN-Cap; assay: Cell proliferation assay (CellTiter-Glo); format: cell-based; conditions: Homo sapiens, LNCaP; Prostate; 72 hours, 0.5% fetal bovine serum; read-out: antiproliferative activity IC50, LN-Cap
Outline: as §1

[5] = test system: OVCAR-5; assay: Cell proliferation assay (CellTiter-Glo); format: cell-based; conditions: Homo sapiens, Ovarian, 72 hours, 0.5% fetal bovine serum, read-out: antiproliferative activity IC50, OVCAR-5
Outline: as §1

[6] = test system: PC-3; assay: Cell proliferation assay (CellTiter-Glo); format: cell-based; conditions: Homo sapiens, Prostate, 72 hours, 0.5% fetal bovine serum, read-out: antiproliferative activity IC50, PC-3
Outline: as §1

T1 sequence (O00329 whole entry): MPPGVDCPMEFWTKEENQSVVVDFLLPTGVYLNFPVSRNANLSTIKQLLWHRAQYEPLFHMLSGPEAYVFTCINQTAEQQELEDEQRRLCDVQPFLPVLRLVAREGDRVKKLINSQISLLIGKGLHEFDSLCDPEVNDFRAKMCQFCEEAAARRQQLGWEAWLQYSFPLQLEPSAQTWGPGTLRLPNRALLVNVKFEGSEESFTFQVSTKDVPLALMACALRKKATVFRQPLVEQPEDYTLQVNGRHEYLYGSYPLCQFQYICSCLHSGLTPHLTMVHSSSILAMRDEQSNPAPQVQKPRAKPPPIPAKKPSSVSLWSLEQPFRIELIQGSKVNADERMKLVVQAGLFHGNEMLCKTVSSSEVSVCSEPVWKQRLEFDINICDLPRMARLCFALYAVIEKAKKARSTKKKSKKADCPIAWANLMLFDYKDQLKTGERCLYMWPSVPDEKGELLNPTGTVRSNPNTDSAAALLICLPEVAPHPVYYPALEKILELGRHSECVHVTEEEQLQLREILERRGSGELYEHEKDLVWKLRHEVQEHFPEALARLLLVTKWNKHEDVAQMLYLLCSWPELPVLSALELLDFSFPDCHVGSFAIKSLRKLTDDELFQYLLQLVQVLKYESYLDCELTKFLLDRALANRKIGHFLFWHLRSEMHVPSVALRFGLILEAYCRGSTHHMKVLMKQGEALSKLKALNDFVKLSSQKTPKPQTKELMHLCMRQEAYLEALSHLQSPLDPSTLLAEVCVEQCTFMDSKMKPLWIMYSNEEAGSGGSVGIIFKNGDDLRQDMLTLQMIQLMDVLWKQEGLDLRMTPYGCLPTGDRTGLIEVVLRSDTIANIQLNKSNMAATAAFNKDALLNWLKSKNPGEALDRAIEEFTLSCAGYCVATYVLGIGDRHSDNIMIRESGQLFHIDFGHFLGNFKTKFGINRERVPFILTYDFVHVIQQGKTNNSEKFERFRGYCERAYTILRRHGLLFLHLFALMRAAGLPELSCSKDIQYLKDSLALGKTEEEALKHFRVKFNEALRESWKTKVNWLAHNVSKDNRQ
T1 sequence (P27986 whole entry partner): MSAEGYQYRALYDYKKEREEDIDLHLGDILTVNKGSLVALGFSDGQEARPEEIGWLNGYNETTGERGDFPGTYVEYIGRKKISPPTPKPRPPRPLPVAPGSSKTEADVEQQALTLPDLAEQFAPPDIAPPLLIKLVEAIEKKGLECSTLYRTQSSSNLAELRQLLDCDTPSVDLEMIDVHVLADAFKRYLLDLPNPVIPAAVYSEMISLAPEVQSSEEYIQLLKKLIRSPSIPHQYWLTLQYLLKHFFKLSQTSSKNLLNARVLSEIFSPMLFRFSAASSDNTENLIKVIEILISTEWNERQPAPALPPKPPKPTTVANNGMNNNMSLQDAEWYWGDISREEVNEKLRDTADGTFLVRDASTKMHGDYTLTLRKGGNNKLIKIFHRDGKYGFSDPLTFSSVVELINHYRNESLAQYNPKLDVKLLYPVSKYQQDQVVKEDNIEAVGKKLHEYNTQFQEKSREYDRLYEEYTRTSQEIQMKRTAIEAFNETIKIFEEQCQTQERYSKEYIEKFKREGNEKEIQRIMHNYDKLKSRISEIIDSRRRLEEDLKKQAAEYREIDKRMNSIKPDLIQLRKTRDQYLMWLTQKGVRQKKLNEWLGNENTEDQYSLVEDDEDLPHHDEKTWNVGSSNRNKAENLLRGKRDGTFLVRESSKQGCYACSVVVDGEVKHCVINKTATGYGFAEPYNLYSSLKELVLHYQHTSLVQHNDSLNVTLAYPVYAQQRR

IC50 [1] [nM]	melting point [°C]	IC50 [2] [nM]	IC50 [3] [nM]	IC50 [5] [nM]	IC50 [6] [nM]	SMILES	IC50 [4] [nM]
< 100	197 to 200					CN(Cc1cc2nc(-c3cccc4[nH]ncc34)nc(N3CCOCC3)c2s1)c1ncc(C(=O)NO)cn1 [Compound 54, 2-(((2-(1H-indazol-4-yl)-4-morpholinothieno[3,2-d]pyrimidin-6-yl)methyl)(methyl)amino)-N-hydroxypyrimidine-5-carboxamide]	
< 100		10 to 100	< 10			CNc1ccc(-c2nc(N3CCOCC3)c3sc(CN(C)c4ncc(C(=O)NO)cn4)cc3n2)cn1 [Compound 111, N-Hydroxy-2-(methyl((2-(6-(methylamino)pyridin-3-yl)-4-morpholinothieno[3,2-d]pyrimidin-6-yl)methyl)amino)pyrimidine-5-carboxamide]	
		< 10	< 10	< 10	10 to 100	CN(Cc1cc2nc(-c3ccc(N)cc3)nc(N3CCOCC3)c2s1)c1ncc(C(=O)NO)cn1 [Compound 150, 2-(((2-(4-aminophenyl)-4-morpholinothieno[3,2-d]pyrimidin-6-yl)methyl)(methyl)amino)-N-hydroxypyrimidine-5-carboxamide]	< 10
